# Data reported in US20230148599A1, “FUNGICIDAL MIXTURES CONTAINING PYRAZOLE DERIVATIVES” (FMC Corporation, priority 2020, published 2023).
# Test system: Septoria tritici
# Assay: Test A: wheat leaf blotch, preventive spray on wheat seedlings
# Format: in vivo
# Conditions: 50 ppm, 100 = 100% disease control, 0 = no control
# Source text: (§1) General protocol for preparing test suspensions for Tests A-F: the test compounds were first dissolved in acetone in an amount equal to 3% of the final volume and then suspended at the desired concentration (in ppm) in acetone and purified water (50/50 mix by volume) containing 250 ppm of the surfactant PEG400 (polyhydric alcohol esters). The resulting test suspensions were then used in Tests A-F.
# (§2) The test solution was sprayed to the point of run-off on wheat seedlings. The following day the seedlings were inoculated with a spore suspension of Septoria tritici (the causal agent of wheat leaf blotch) and incubated in a saturated atmosphere at 24° C. for 48 h, and then moved to a growth chamber at 20° C. for 17 days, after which time disease ratings were made.
# (§3) A rating of 100 indicates 100% disease control and a rating of 0 indicates no disease control (relative to the controls). A dash (−) indicates the compound was not tested.
row,Structure (SMILES),Test A disease control rating [%]
1,Cc1nn(C)c(Nc2c(F)cc(F)cc2[N+](=O)[O-])c1-c1c(F)cccc1Cl [compound 39],100
2,Cc1cc(F)c(Nc2c(-c3ccc(F)cc3Br)c(C)nn2C)c([N+](=O)[O-])c1 [compound 40],100
3,Cc1nn(C)c(Nc2c(Cl)cccc2[N+](=O)[O-])c1-c1ccc(F)cc1Br [compound 41],100
4,Cc1cccc([N+](=O)[O-])c1Nc1c(-c2ccc(F)cc2Br)c(C)nn1C [compound 42],100
5,Cc1nn(C)c(Nc2c(Cl)cc(F)cc2[N+](=O)[O-])c1-c1ccc(F)cc1Br [compound 43],100
6,Cc1nn(C)c(Nc2ccc(F)cc2[N+](=O)[O-])c1-c1c(F)cccc1Cl [compound 44],100
7,CCc1nn(C)c(Nc2ccc(OC)cc2[N+](=O)[O-])c1-c1ccc(F)cc1F [compound 45],100
8,CCc1nn(C)c(Nc2c(F)cccc2[N+](=O)[O-])c1-c1ccc(F)cc1F [compound 46],100
9,Cc1nn(C)c(Nc2c(F)cc(I)cc2[N+](=O)[O-])c1-c1ccc(F)cc1Cl [compound 47],100
10,COc1ccc(-c2c(C)nn(C)c2Nc2c(F)cccc2[N+](=O)[O-])c(C)c1 [compound 48],100
11,Cc1nn(C)c(Nc2c(Cl)cc(F)cc2[N+](=O)[O-])c1-c1c(F)cccc1Cl [compound 49],100
12,CCc1nn(C)c(Nc2c(F)cc(F)cc2[N+](=O)[O-])c1-c1ccc(F)cc1F [compound 50],100
13,Cc1nn(C)c(Nc2c(F)cc(F)cc2[N+](=O)[O-])c1-c1ccc(F)cc1Br [compound 51],100

# Test system: Alternaria solani
# Assay: Test F: tomato early blight, preventive spray on tomato seedlings
# Format: in vivo
# Conditions: 50 ppm, 100 = 100% disease control, 0 = no control
# Source text: as §1
# (§4) The test suspension was sprayed to the point of run-off on tomato seedlings. The following day the seedlings were inoculated with a spore suspension of Alternaria solani (the causal agent of tomato early blight) and incubated in a saturated atmosphere at 27° C. for 48 h, and then moved to a growth chamber at 20° C. for 3 days, after which time visual disease ratings were made.
# as §3
row,Structure (SMILES),Test F disease control rating [%]
1,Cc1nn(C)c(Nc2c(F)cc(F)cc2[N+](=O)[O-])c1-c1c(F)cccc1Cl [compound 39],99
2,Cc1cc(F)c(Nc2c(-c3ccc(F)cc3Br)c(C)nn2C)c([N+](=O)[O-])c1 [compound 40],100
3,Cc1nn(C)c(Nc2c(Cl)cccc2[N+](=O)[O-])c1-c1ccc(F)cc1Br [compound 41],0
4,Cc1cccc([N+](=O)[O-])c1Nc1c(-c2ccc(F)cc2Br)c(C)nn1C [compound 42],0
5,Cc1nn(C)c(Nc2c(Cl)cc(F)cc2[N+](=O)[O-])c1-c1ccc(F)cc1Br [compound 43],64
6,Cc1nn(C)c(Nc2ccc(F)cc2[N+](=O)[O-])c1-c1c(F)cccc1Cl [compound 44],46
7,CCc1nn(C)c(Nc2ccc(OC)cc2[N+](=O)[O-])c1-c1ccc(F)cc1F [compound 45],33
8,CCc1nn(C)c(Nc2c(F)cccc2[N+](=O)[O-])c1-c1ccc(F)cc1F [compound 46],81
9,Cc1nn(C)c(Nc2c(F)cc(I)cc2[N+](=O)[O-])c1-c1ccc(F)cc1Cl [compound 47],96
10,COc1ccc(-c2c(C)nn(C)c2Nc2c(F)cccc2[N+](=O)[O-])c(C)c1 [compound 48],97
11,Cc1nn(C)c(Nc2c(Cl)cc(F)cc2[N+](=O)[O-])c1-c1c(F)cccc1Cl [compound 49],26
12,CCc1nn(C)c(Nc2c(F)cc(F)cc2[N+](=O)[O-])c1-c1ccc(F)cc1F [compound 50],98
13,Cc1nn(C)c(Nc2c(F)cc(F)cc2[N+](=O)[O-])c1-c1ccc(F)cc1Br [compound 51],99

# Test system: Phakopsora pachyrhizi
# Assay: Test D: Asian soybean rust, preventive spray on soybean seedlings
# Format: in vivo
# Conditions: 50 ppm, 100 = 100% disease control, 0 = no control
# Source text: as §1
# The test solution was sprayed to the point of run-off on soybean seedlings. The following day the seedlings were inoculated with a spore suspension of Phakopsora pachyrhizi (the causal agent of Asian soybean rust) and incubated in a saturated atmosphere at 22° C. for 24 h and then moved to a growth chamber at 22° C. for 8 days, after which time visual disease ratings were made.
# as §3
row,Structure (SMILES),Test D disease control rating [%]
1,Cc1nn(C)c(Nc2c(F)cc(F)cc2[N+](=O)[O-])c1-c1c(F)cccc1Cl [compound 39],73
2,Cc1cc(F)c(Nc2c(-c3ccc(F)cc3Br)c(C)nn2C)c([N+](=O)[O-])c1 [compound 40],82
3,Cc1nn(C)c(Nc2c(Cl)cccc2[N+](=O)[O-])c1-c1ccc(F)cc1Br [compound 41],77
4,Cc1cccc([N+](=O)[O-])c1Nc1c(-c2ccc(F)cc2Br)c(C)nn1C [compound 42],0
5,Cc1nn(C)c(Nc2c(Cl)cc(F)cc2[N+](=O)[O-])c1-c1ccc(F)cc1Br [compound 43],65
6,Cc1nn(C)c(Nc2ccc(F)cc2[N+](=O)[O-])c1-c1c(F)cccc1Cl [compound 44],0
7,CCc1nn(C)c(Nc2ccc(OC)cc2[N+](=O)[O-])c1-c1ccc(F)cc1F [compound 45],0
8,CCc1nn(C)c(Nc2c(F)cccc2[N+](=O)[O-])c1-c1ccc(F)cc1F [compound 46],0
9,Cc1nn(C)c(Nc2c(F)cc(I)cc2[N+](=O)[O-])c1-c1ccc(F)cc1Cl [compound 47],92
10,COc1ccc(-c2c(C)nn(C)c2Nc2c(F)cccc2[N+](=O)[O-])c(C)c1 [compound 48],0
11,Cc1nn(C)c(Nc2c(Cl)cc(F)cc2[N+](=O)[O-])c1-c1c(F)cccc1Cl [compound 49],25
12,CCc1nn(C)c(Nc2c(F)cc(F)cc2[N+](=O)[O-])c1-c1ccc(F)cc1F [compound 50],0
13,Cc1nn(C)c(Nc2c(F)cc(F)cc2[N+](=O)[O-])c1-c1ccc(F)cc1Br [compound 51],79

# Test system: Puccinia recondita f. sp. tritici
# Assay: Test B: wheat leaf rust, preventive spray on wheat seedlings
# Format: in vivo
# Conditions: 50 ppm, 100 = 100% disease control, 0 = no control
# Source text: as §1
# as §2, with “Puccinia recondita f. sp.” for “Septoria”, “rust)” for “blotch)”, “20°” for “24°”, “24” for “48”, “7” for “17”
# as §3
row,Structure (SMILES),Test B disease control rating [%]
1,Cc1nn(C)c(Nc2c(F)cc(F)cc2[N+](=O)[O-])c1-c1c(F)cccc1Cl [compound 39],100
2,Cc1cc(F)c(Nc2c(-c3ccc(F)cc3Br)c(C)nn2C)c([N+](=O)[O-])c1 [compound 40],100
3,Cc1nn(C)c(Nc2c(Cl)cccc2[N+](=O)[O-])c1-c1ccc(F)cc1Br [compound 41],100
4,Cc1cccc([N+](=O)[O-])c1Nc1c(-c2ccc(F)cc2Br)c(C)nn1C [compound 42],100
5,Cc1nn(C)c(Nc2c(Cl)cc(F)cc2[N+](=O)[O-])c1-c1ccc(F)cc1Br [compound 43],100
6,Cc1nn(C)c(Nc2ccc(F)cc2[N+](=O)[O-])c1-c1c(F)cccc1Cl [compound 44],99
7,CCc1nn(C)c(Nc2ccc(OC)cc2[N+](=O)[O-])c1-c1ccc(F)cc1F [compound 45],86
8,CCc1nn(C)c(Nc2c(F)cccc2[N+](=O)[O-])c1-c1ccc(F)cc1F [compound 46],98
9,Cc1nn(C)c(Nc2c(F)cc(I)cc2[N+](=O)[O-])c1-c1ccc(F)cc1Cl [compound 47],97
10,COc1ccc(-c2c(C)nn(C)c2Nc2c(F)cccc2[N+](=O)[O-])c(C)c1 [compound 48],95
11,Cc1nn(C)c(Nc2c(Cl)cc(F)cc2[N+](=O)[O-])c1-c1c(F)cccc1Cl [compound 49],100
12,CCc1nn(C)c(Nc2c(F)cc(F)cc2[N+](=O)[O-])c1-c1ccc(F)cc1F [compound 50],98
13,Cc1nn(C)c(Nc2c(F)cc(F)cc2[N+](=O)[O-])c1-c1ccc(F)cc1Br [compound 51],100

# Test system: Botrytis cinerea
# Assay: Test E: tomato Botrytis, preventive spray on tomato seedlings
# Format: in vivo
# Conditions: 50 ppm, 100 = 100% disease control, 0 = no control
# Source text: as §1
# as §4, with “Botrytis cinerea” for “Alternaria solani”, “Botrytis)” for “early blight)”, “20°” for “27°”, “24°” for “20°”
# as §3
row,Structure (SMILES),Test E disease control rating [%]
1,Cc1nn(C)c(Nc2c(F)cc(F)cc2[N+](=O)[O-])c1-c1c(F)cccc1Cl [compound 39],88
2,Cc1cc(F)c(Nc2c(-c3ccc(F)cc3Br)c(C)nn2C)c([N+](=O)[O-])c1 [compound 40],98
3,Cc1nn(C)c(Nc2c(Cl)cccc2[N+](=O)[O-])c1-c1ccc(F)cc1Br [compound 41],77
4,Cc1cccc([N+](=O)[O-])c1Nc1c(-c2ccc(F)cc2Br)c(C)nn1C [compound 42],91
5,Cc1nn(C)c(Nc2c(Cl)cc(F)cc2[N+](=O)[O-])c1-c1ccc(F)cc1Br [compound 43],96
6,Cc1nn(C)c(Nc2ccc(F)cc2[N+](=O)[O-])c1-c1c(F)cccc1Cl [compound 44],95
7,CCc1nn(C)c(Nc2ccc(OC)cc2[N+](=O)[O-])c1-c1ccc(F)cc1F [compound 45],99
8,CCc1nn(C)c(Nc2c(F)cccc2[N+](=O)[O-])c1-c1ccc(F)cc1F [compound 46],99
9,Cc1nn(C)c(Nc2c(F)cc(I)cc2[N+](=O)[O-])c1-c1ccc(F)cc1Cl [compound 47],95
10,COc1ccc(-c2c(C)nn(C)c2Nc2c(F)cccc2[N+](=O)[O-])c(C)c1 [compound 48],97
11,Cc1nn(C)c(Nc2c(Cl)cc(F)cc2[N+](=O)[O-])c1-c1c(F)cccc1Cl [compound 49],94
12,CCc1nn(C)c(Nc2c(F)cc(F)cc2[N+](=O)[O-])c1-c1ccc(F)cc1F [compound 50],92
13,Cc1nn(C)c(Nc2c(F)cc(F)cc2[N+](=O)[O-])c1-c1ccc(F)cc1Br [compound 51],98

# Test system: Blumeria graminis f. sp. tritici
# Assay: Test C: wheat powdery mildew, preventive spray on wheat seedlings
# Format: in vivo
# Conditions: 50 ppm, 100 = 100% disease control, 0 = no control
# Source text: as §1
# The test suspension was sprayed to the point of run-off on wheat seedlings. The following day the seedlings were inoculated with a spore dust of Blumeria graminis f. sp. tritici, (also known as Erysiphe graminis f. sp. tritici, the causal agent of wheat powdery mildew) and incubated in a growth chamber at 20° C. for 8 days, after which time visual disease ratings were made.
# as §3
row,Structure (SMILES),Test C disease control rating [%]
1,Cc1nn(C)c(Nc2c(F)cc(F)cc2[N+](=O)[O-])c1-c1c(F)cccc1Cl [compound 39],99
2,Cc1cc(F)c(Nc2c(-c3ccc(F)cc3Br)c(C)nn2C)c([N+](=O)[O-])c1 [compound 40],100
3,Cc1nn(C)c(Nc2c(Cl)cccc2[N+](=O)[O-])c1-c1ccc(F)cc1Br [compound 41],94
4,Cc1cccc([N+](=O)[O-])c1Nc1c(-c2ccc(F)cc2Br)c(C)nn1C [compound 42],96
5,Cc1nn(C)c(Nc2c(Cl)cc(F)cc2[N+](=O)[O-])c1-c1ccc(F)cc1Br [compound 43],97
6,Cc1nn(C)c(Nc2ccc(F)cc2[N+](=O)[O-])c1-c1c(F)cccc1Cl [compound 44],98
7,CCc1nn(C)c(Nc2ccc(OC)cc2[N+](=O)[O-])c1-c1ccc(F)cc1F [compound 45],95
8,CCc1nn(C)c(Nc2c(F)cccc2[N+](=O)[O-])c1-c1ccc(F)cc1F [compound 46],99
9,Cc1nn(C)c(Nc2c(F)cc(I)cc2[N+](=O)[O-])c1-c1ccc(F)cc1Cl [compound 47],89
10,COc1ccc(-c2c(C)nn(C)c2Nc2c(F)cccc2[N+](=O)[O-])c(C)c1 [compound 48],89
11,Cc1nn(C)c(Nc2c(Cl)cc(F)cc2[N+](=O)[O-])c1-c1c(F)cccc1Cl [compound 49],95
12,CCc1nn(C)c(Nc2c(F)cc(F)cc2[N+](=O)[O-])c1-c1ccc(F)cc1F [compound 50],100
13,Cc1nn(C)c(Nc2c(F)cc(F)cc2[N+](=O)[O-])c1-c1ccc(F)cc1Br [compound 51],100
